In series [1] the target is T1, ALK tyrosine kinase receptor (Homo sapiens, UniProt Q9UM73). It counts as cell-based, HEK293.
Description: Inhibition of recombinant human ALK expressed in HEK293 cells assessed as reduction in ALK autophosphorylation at Tyr1604 residue incubated for 60 mins by sandwich ELISA
In series [2] the target is T1, ALK tyrosine kinase receptor.
Description: Inhibition of human ALK kinase domain (1058 to 1620 residues) expressed in baculovirus expression system using biotin-poly-GT as substrate pre-incubated for 10 mins followed by ATP addition and measured after 60 mins by HTRF method
Series [3] has as its target High affinity nerve growth factor receptor (Homo sapiens, UniProt P04629). Kind of series: Inhibition of N-terminal GST-tagged human TrkA kinase domain (436 to 790 residues) expressed in baculovirus expression system using biotin-poly-GT as substrate pre-incubated for 5 mins followed by ATP addition and measured after 60 mins by alpha screen assay.
The species named for series [4] is Homo sapiens. In words: Selectivity ratio of IC50 for N-terminal GST-tagged human TrkA kinase domain (436 to 790 residues) expressed in baculovirus expression system to IC50 for human ALK kinase domain (1058 to 1620 residues) expressed in baculovirus expression system.
Series [5] addresses MDR1 (ABCB1, P-gp) (Homo sapiens, UniProt P08183). Kind of series: Substrate activity at human MDR1 expressed in pig LLC-PK1 cells assessed as efflux ratio of apparent permeability across basolateral to apical over apical to basolateral side at 10 uM after 2 hrs by LC/MS/MS analysis. The series is classed as ADME, cell-based.

The record followed here is ChEMBL document CHEMBL4396868, “Discovery of Potent, Selective, and Brain-Penetrant 1 H-Pyrazol-5-yl-1 H-pyrrolo[2,3- b]pyridines as Anaplastic Lymphoma Kinase (ALK) Inhibitors” (J Med Chem, 2019).

Bounds are passed on as bounds.

Sequence of MDR1 (ABCB1, P-gp) (P08183 whole entry): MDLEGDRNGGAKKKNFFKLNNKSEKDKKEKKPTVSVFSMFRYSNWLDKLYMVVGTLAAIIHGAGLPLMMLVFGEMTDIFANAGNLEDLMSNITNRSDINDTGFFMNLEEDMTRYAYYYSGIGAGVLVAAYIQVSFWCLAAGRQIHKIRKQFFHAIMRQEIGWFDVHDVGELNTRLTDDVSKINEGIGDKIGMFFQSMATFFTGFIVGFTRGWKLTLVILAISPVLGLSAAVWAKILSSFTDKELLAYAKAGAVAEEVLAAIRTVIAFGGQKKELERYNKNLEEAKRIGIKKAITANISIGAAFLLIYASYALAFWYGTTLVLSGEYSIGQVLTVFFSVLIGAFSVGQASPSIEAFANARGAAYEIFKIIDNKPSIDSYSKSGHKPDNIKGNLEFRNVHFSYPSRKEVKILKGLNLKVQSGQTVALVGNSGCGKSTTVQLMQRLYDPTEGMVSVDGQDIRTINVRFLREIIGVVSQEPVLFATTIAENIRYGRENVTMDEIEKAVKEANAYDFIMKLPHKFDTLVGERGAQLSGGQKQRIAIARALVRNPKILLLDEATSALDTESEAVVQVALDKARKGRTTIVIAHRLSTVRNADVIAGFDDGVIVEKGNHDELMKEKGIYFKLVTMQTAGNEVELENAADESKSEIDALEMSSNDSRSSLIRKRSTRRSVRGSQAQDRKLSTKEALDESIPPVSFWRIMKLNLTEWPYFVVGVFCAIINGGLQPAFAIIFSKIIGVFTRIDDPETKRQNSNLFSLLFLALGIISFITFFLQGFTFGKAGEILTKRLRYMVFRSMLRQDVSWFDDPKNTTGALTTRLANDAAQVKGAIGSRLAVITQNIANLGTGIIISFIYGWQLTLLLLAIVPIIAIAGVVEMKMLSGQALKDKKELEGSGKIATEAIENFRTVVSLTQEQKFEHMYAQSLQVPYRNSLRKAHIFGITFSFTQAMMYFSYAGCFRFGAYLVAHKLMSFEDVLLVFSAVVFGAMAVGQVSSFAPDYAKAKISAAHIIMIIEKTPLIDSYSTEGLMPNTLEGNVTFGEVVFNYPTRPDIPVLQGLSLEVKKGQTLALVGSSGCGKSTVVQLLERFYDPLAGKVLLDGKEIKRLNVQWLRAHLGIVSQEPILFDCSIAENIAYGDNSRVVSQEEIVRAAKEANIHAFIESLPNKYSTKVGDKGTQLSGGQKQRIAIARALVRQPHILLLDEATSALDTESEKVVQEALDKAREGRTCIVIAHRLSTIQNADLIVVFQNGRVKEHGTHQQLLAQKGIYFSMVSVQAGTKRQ
T1 sequence (Q9UM73 whole entry): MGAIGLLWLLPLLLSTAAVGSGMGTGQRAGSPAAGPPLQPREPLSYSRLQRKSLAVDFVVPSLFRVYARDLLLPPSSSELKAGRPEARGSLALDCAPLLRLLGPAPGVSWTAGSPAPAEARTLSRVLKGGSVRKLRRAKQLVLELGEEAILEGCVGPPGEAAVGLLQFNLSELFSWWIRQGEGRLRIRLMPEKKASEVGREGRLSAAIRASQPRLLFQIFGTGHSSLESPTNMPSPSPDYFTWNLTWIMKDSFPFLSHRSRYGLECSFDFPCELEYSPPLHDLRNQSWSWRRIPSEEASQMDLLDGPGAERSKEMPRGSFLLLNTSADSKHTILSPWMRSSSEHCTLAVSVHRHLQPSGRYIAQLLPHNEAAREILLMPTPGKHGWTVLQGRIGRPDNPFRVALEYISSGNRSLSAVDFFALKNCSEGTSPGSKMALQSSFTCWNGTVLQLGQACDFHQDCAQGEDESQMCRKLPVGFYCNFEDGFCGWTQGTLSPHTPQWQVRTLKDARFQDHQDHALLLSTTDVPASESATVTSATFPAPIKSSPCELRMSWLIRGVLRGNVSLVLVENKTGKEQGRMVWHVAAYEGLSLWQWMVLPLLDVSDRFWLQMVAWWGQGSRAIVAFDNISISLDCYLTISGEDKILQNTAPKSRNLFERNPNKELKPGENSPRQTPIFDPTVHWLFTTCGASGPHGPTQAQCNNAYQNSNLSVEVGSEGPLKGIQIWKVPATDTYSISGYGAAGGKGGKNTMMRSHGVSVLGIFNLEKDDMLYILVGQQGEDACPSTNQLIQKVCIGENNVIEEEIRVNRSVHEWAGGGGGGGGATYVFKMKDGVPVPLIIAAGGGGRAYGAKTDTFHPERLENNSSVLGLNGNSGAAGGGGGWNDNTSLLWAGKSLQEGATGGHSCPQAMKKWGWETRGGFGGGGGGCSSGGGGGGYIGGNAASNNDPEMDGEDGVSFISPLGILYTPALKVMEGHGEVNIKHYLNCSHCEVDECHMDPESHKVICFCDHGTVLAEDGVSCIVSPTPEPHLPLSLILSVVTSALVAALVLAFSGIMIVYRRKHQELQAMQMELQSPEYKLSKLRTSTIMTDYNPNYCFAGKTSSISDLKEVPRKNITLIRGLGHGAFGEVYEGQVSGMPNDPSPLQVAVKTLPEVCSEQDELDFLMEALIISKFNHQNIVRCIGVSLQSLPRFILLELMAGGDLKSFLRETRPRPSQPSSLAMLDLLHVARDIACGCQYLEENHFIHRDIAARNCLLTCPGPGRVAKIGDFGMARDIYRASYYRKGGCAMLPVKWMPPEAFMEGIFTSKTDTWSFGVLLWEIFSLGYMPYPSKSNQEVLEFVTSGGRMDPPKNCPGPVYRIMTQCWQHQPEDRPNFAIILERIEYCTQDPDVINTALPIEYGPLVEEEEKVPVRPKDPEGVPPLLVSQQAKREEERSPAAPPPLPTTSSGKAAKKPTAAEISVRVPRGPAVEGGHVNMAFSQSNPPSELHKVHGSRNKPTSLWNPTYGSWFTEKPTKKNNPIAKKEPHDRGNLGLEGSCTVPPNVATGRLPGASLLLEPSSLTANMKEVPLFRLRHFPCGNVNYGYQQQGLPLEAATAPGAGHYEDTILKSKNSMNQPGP
Sequence of High affinity nerve growth factor receptor (P04629 whole entry, the tested form may be a part): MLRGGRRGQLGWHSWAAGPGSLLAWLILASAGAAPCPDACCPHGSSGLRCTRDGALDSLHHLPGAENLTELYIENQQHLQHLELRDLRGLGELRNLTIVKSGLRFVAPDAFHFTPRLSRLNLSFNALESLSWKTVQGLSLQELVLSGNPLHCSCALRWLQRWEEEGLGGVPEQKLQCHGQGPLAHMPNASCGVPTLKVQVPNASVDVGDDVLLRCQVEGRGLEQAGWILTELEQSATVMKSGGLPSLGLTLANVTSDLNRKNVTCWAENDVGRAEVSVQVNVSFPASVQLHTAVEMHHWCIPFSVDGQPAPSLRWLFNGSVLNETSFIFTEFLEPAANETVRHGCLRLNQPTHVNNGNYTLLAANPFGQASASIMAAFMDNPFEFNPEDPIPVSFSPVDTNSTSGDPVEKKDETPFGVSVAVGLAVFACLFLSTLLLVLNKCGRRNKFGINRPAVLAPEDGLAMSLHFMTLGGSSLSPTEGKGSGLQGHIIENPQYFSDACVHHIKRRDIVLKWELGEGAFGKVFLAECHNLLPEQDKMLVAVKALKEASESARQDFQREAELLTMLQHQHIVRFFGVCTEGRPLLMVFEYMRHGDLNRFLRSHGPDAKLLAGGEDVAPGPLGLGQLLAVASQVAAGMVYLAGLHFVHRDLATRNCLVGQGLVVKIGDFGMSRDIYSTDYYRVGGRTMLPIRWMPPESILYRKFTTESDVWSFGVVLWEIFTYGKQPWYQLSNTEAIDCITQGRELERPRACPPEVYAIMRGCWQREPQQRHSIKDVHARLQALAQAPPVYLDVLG

As usually defined, the IC50 is the concentration at which inhibition is half-maximal. Take `Cc1cc(-n2ccc3ccc(N[C@@H](C)c4ccc(F)cc4F)nc32)[nH]n1`: the IC50 in series [1] was 140 nM; in series [2], 14 nM; in series [3], less than 10 nM.

On to `Cc1cc(-c2cnc3ccc(N[C@@H](C)c4ccc(F)cc4F)nn23)[nH]n1`, for which the IC50 in series [1] is 6 nM; in series [2] it was 2 nM; in series [3] it was 0.1 nM.

On to `Cc1cc(-n2cc(C(=O)N(C)C)c3ccc(N[C@@H](C)c4ccc(F)cn4)nc32)[nH]n1`, for which the IC50 in series [1] is 16 nM; in series [2], 1.8 nM; in series [3], 120 nM. In addition, the Ratio IC50 in series [4] was 67.

Consider `CCS(=O)(=O)c1cn(-c2cc(C)[nH]n2)c2nc(N[C@@H](C)c3ccc(F)cn3)ccc12`, for which the concentration for half-maximal inhibition (IC50) was 37 nM in series [1], 9.6 nM in series [2] and 110 nM in series [3].

Turning to `Cc1cc(-n2cc(S(=O)(=O)C(C)C)c3ccc(N[C@@H](C)c4ccc(F)cn4)nc32)n[nH]1`, the 50% inhibitory concentration (IC50) in series [1] amounted to 270 nM; in series [2], 18 nM; in series [3], 1700 nM. Further, the Ratio IC50 in series [4] worked out at 94.

The efflux ratio is a quotient of directional permeabilities that is used to spot active efflux. For `Cc1cc(-n2cc(C(=O)N3CCOCC3)c3ccc(N[C@@H](C)c4ccc(F)cn4)nc32)[nH]n1`, the half-inhibitory concentration (IC50) in series [1] amounted to 23 nM; in series [2], 2.5 nM; in series [3], 1200 nM. The efflux ratio at 2 h, 10 µM in series [5] is 18. Further, in series [4], the Ratio IC50 is 480.

In turn, `Cc1cc(-c2cnc3ccc(N[C@H](C)c4ccc(F)cc4F)nn23)[nH]n1` showed an IC50 in series [2] of 1000 nM.

Consider `COCc1cn(-c2cc(C)n[nH]2)c2nc(OC(C)c3ccc(F)cn3)ccc12` (racemic; 15), for which the concentration for half-maximal inhibition (IC50) was 3.2 nM in series [2] and less than 10 nM in series [3].

`Cc1cc(-n2cc(S(=O)(=O)C3COC3)c3ccc(N[C@@H](C)c4ccc(F)cn4)nc32)n[nH]1`: the results for the 50% inhibitory concentration (IC50) in series [1], in series [2] and in series [3] were 60 nM, 20 nM and 730 nM, respectively.

As to `Cc1cc(-n2cc(S(C)(=O)=O)c3ccc(N[C@@H](C)c4ccc(F)cn4)nc32)n[nH]1`, the IC50 in series [1] amounted to 13 nM; in series [2], 3.3 nM; in series [3], 45 nM.

On to `Cc1cc(-n2cc(C(=O)N3CCN(C)CC3)c3ccc(N[C@@H](C)c4ccc(F)cn4)nc32)[nH]n1`, for which the IC50 in series [1] was 37 nM; in series [2], 6.1 nM; in series [3], 250 nM.

As to `COCc1cn(-c2cc(C)n[nH]2)c2nc(OC(C)c3ccc(F)cn3)ccc12` (racemic; 16), the 50% inhibitory concentration (IC50) in series [2] was 2800 nM; in series [3], 1500 nM.

Consider `Cc1cc(-n2cc(C(=O)N3CCO[C@H](C)C3)c3ccc(O[C@H](C)c4ccc(F)cn4)nc32)[nH]n1` (relative stereo), for which the half-inhibitory concentration (IC50) in series [1] was 42 nM; in series [2], 4.6 nM; in series [3] it was 3400 nM. Besides, the efflux ratio at 2 h, 10 µM in series [5] came to 1.3.

Take `Cc1cc(-n2cc(C3=CCOCC3)c3ccc(N[C@@H](C)c4ccc(F)cn4)nc32)[nH]n1`: the IC50 in series [1] was 9.4 nM; in series [2], 1.9 nM; in series [3] it was 2.7 nM.

With `Cc1cc(-n2cc(S(C)(=O)=O)c3ccc(N[C@@H](C)c4ccc(F)cc4F)nc32)n[nH]1`, the figures for the IC50 in series [1], in series [2] and in series [3] were 27 nM, 1.2 nM and 15 nM, respectively.

For the molecule `Cc1cc(-n2cc(C(=O)N3CCOCC3)c3ccc(OC(C)c4ccc(F)cn4)nc32)[nH]n1` (racemic), the IC50 in series [1] turned out to be 69 nM; in series [2] it was 6.2 nM; in series [3], 1400 nM. Also, the efflux ratio at 2 h, 10 µM in series [5] is 3.1.
